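96-well plates; 48 h exposure; 5 concentrations. Endpoints by linear interpolation between flanking doses. Not reached: highest tested concentration assigned. GI50 = concentration required for 50% inhibition of growth. Definition used: TGI = concentration required for complete inhibition of growth.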
How the values were obtained:
Experiment in all cases: NCI tumour cell line growth inhibition, 48 h
[1] = system: OVCAR-3 ovarian
[2] = system: MDA-MB-231 breast
[3] = system: COLO 205 colon
[4] = system: NCI-H522 lung
[5] = system: SNB-75 CNS
[6] = system: HCT-15 colon
[7] = system: HS 578T breast
[8] = system: HOP-62 NSCLC
[9] = system: RXF 393 renal
[10] = system: M14 melanoma

CCC1(CC)C(=O)CC[C@@]2(C)C1=CC[C@H]1[C@@H]3CC[C@H](O)[C@@]3(C)CC[C@@H]12
TGI [1]: 45 µM
TGI [2]: > 100 µM
TGI [3]: 88.9 µM
TGI [4]: 78.6 µM
TGI [5]: > 100 µM
TGI [6]: > 100 µM
TGI [7]: 72.6 µM
TGI [8]: 37 µM
TGI [9]: > 100 µM
TGI [10]: > 100 µM

Cc1cc2ccccc2n1CC(=O)NCC(C)C
TGI [1]: > 100 µM
TGI [2]: > 100 µM
TGI [3]: > 100 µM
TGI [4]: > 100 µM
TGI [5]: > 100 µM
TGI [6]: > 100 µM
TGI [7]: > 100 µM
TGI [8]: > 100 µM
TGI [9]: > 100 µM
TGI [10]: > 100 µM

CN(C)CCOC(=O)COc1ccc(Cl)cc1
TGI [1]: > 100 µM
TGI [2]: > 100 µM
TGI [3]: > 100 µM
TGI [4]: > 100 µM
TGI [5]: > 100 µM
TGI [6]: > 100 µM
TGI [8]: > 100 µM
TGI [9]: > 100 µM
TGI [10]: > 100 µM

COc1ccc(C2(c3ccc(OC)cc3)OC(=O)c3cccc4cccc2c34)cc1
TGI [1]: > 100 µM
TGI [2]: > 100 µM
TGI [6]: > 100 µM
TGI [7]: 97.4 µM
TGI [8]: > 100 µM
TGI [9]: > 100 µM
TGI [10]: > 100 µM

O=c1[nH]c(=O)n(C2OC(COP(=O)(O)OP(=O)(O)O)C(O)C2O)cc1F (centres undefined)
TGI [1]: > 50 µM
TGI [3]: > 50 µM
TGI [4]: 34.3 µM
TGI [5]: > 50 µM
TGI [6]: > 50 µM
TGI [8]: 29.6 µM
TGI [9]: 13.8 µM
TGI [10]: > 50 µM

O=C(O)/C=C(/CC(=O)O)C(=O)O
TGI [1]: 34.5 µM
TGI [2]: 48 µM
TGI [3]: 38.6 µM
TGI [4]: 35.7 µM
TGI [5]: 33.1 µM
TGI [6]: 54 µM
TGI [7]: 40.7 µM
TGI [8]: 40.1 µM
TGI [9]: 34.8 µM
TGI [10]: 44.2 µM

Cc1c2c3cc(O)ccc3nc-2n(C)c2ccccc12
TGI [1]: 6.07 µM
TGI [5]: 5.83 µM
TGI [6]: 10.5 µM
TGI [7]: 8.21 µM
TGI [8]: 7.99 µM
TGI [9]: 2.86 µM
TGI [10]: 4.6 µM

CCN(CC)CCO/N=C1\CC[C@H]2[C@@H]3CC=C4C[C@@H](O)CC[C@]4(C)[C@H]3CC[C@]12C
TGI [1]: 43.8 µM
TGI [2]: 41.2 µM
TGI [3]: 26.1 µM
TGI [4]: 34 µM
TGI [5]: 91.1 µM
TGI [6]: 28.5 µM
TGI [7]: > 100 µM
TGI [8]: 35.2 µM
TGI [9]: 34.1 µM

CCOC(=O)c1ccc(C(=O)C(C(C)=O)C(=O)OC(C)(C)C)n1C (centres undefined)
TGI [1]: > 100 µM
TGI [2]: > 100 µM
TGI [3]: > 100 µM
TGI [4]: > 100 µM
TGI [5]: > 100 µM
TGI [6]: > 100 µM
TGI [7]: > 100 µM
TGI [8]: > 100 µM
TGI [9]: > 100 µM
TGI [10]: > 100 µM

CC1=CC(O)C(O)C2(C)C1CC1OC(=O)C(O)C3C(C)C(O)C4(O)OCC13C42 (centres undefined)
TGI [1]: 121 µM
TGI [3]: 79.7 µM
TGI [4]: 214 µM
TGI [5]: 33.3 µM
TGI [6]: > 625 µM
TGI [8]: 348 µM
TGI [9]: 51 µM

O=C1c2[nH]cc(CN3CCNCC3)c2C(=O)c2c1c(O)c1ccccc1c2O
GI50 [1]: 1770 nM
TGI [1]: 4.05 µM
GI50 [2]: 1510 nM
TGI [2]: 3.18 µM
GI50 [3]: 1590 nM
TGI [3]: 3.39 µM
GI50 [4]: 1760 nM
TGI [4]: 3.65 µM
GI50 [5]: 15.4 µM
TGI [5]: 37.8 µM
GI50 [6]: 1310 nM
TGI [6]: 2.7 µM
TGI [8]: 1.14 µM
GI50 [9]: 23.9 µM
TGI [9]: 71.2 µM
GI50 [10]: 1530 nM
TGI [10]: 3.23 µM

Reference: PubChem BioAssay (NCI)
